{"source": "patent US11279715B2", "about": "“Process for removing radioactive isotopes from aqueous fluids by fluorine containing reagents, fluorine containing, water-insoluble salts of the radioactive isotopes, and their use as therapeutic agents” (priority 2016, dated 2022)", "key": {"[1]": {"conditions": "PB therapy, cited from earlier work"}, "[2]": {"conditions": "in vivo; cited from earlier work"}, "[3]": {"assay": "Solubility of the salts in water and organic solvents", "format": "physicochemical"}, "[4]": {"assay": "Specificity of the anion for Cs^+ in aqueous solution", "conditions": "versus other cations", "text": "For [H2NB2(C6F5)6]^− and [(H3O2)B2(C6F5)6]^− the process appears 100% specific for cesium so that cesium is quantitatively and exclusively separated from all other cations in the aqueous solution. Thus, a single and fully selective separation step is necessary only to separate cesium from the other components in the form of the intermediate Cs[L]. In a second step, intermediate Cs[L] is converted into the desired product CsA, allowing recycling of [L].\nThe interest of the inventors in weakly coordinating anions (WCAs) has led them to synthesize the new cesium salt, Cs[H2NB2(C6F5)6] (2). The inventors realized that (2) is insoluble in water and that it is instantaneously formed by mixing any aqueous solution containing Cs^+ with virtually any source of the [H2NB2(C6F5)]^− anion. The reaction is 100% specific for Cs^+, since only in this case [H2NB2(C6F5)6]^− changes its usual asymmetric conformation to an “inverse C2 symmetric” conformation to form a specific 3D lattice."}, "[5]": {"assay": "Isolation of Cs[H2NB2(C6F5)6] (2) from neat water containing CsCl", "procedure": "[Na(OEt2)3][H2NB2(C6F5)6] (69.6 mg, 0.0541 mmol; FW=1285.4; c≈0.9·10^−4 M) was dissolved in 570 mL of water. CsCl (9.5 mg, 0.0564 mmol; FW=168.4) was added and after brief mixing the clear solution was left unstirred. Soon colorless crystals began to separate. The mixture was left overnight and the precipitate was isolated by filtration; yield of 2 42.1 mg (0.0359 mmol, 66%; FW=1172.9). The aqueous mother liquor was extracted once with 20 mL of CH2Cl2. Evaporation of the solvent gave an additional crop of 20 mg (0.0170 mmol, 32%). Total isolated yield was 62.1 mg (0.053 mmol; 98%). The IR spectra of the isolated solids were identical with that of pure Cs[H2NB2(C6F5)6] (2)."}, "[6]": {"assay": "Isolation of 2 from water containing other metal salts", "conditions": "450 mL water with CsCl 5·10^−5 mol/L plus KCl, PbCl2, CrCl3, CaCl2, FeCl3; reagent c≈4.75·10^−5 M", "procedure": "To a water solution (450 mL), containing the inorganic salts listed below, was added [Na(OEt2)3][H2NB2(C6F5)6] (27.5 mg, 0.0214 mmol; FW=1285.4; c≈4.75·10^−5 M) and the suspension was stirred overnight. A brown precipitate resulted (color presumably arising from Fe(OH)3) which was filtered off and was washed with dichloromethane to extract 2. The solvent of the extract was evaporated to dryness to leave a colorless residue: yield 19.2 mg of 2 (0.0163 mmol, 76%; FW=1172.9), identified by comparison of the IR spectrum with that of pure 2.\nList of Added Inorganic Salts"}}, "note": "Like-named read-outs stand apart in the source and are kept apart here.", "data": [{"compound": "[C-]#N.[C-]#N.[C-]#N.[C-]#N.[C-]#N.[C-]#N.[C-]#N.[C-]#N.[C-]#N.[C-]#N.[C-]#N.[C-]#N.[C-]#N.[C-]#N.[C-]#N.[C-]#N.[C-]#N.[C-]#N.[Fe+2].[Fe+2].[Fe+2].[Fe+3].[Fe+3].[Fe+3].[Fe+3]", "note": "[Prussian blue, ferric hexacyanoferrate]", "values": [{"measurement": "biological half-life of retention of cesium", "setting": "[1]; adolescents", "value": "~30", "unit": "days"}, {"measurement": "biological half-life of retention of cesium", "setting": "[1]; adults", "value": "approximately 26 days"}, {"measurement": "biological half-life of retention of cesium", "setting": "[1]; children", "value": "~24", "unit": "days"}, {"measurement": "absorption by the body via the bowels", "setting": "[2]", "value": "not absorbed by the body via the bowels to a noticeable extent"}]}, {"compound": "Fc1c(F)c(F)c([B-]([NH2+][B-](c2c(F)c(F)c(F)c(F)c2F)(c2c(F)c(F)c(F)c(F)c2F)c2c(F)c(F)c(F)c(F)c2F)(c2c(F)c(F)c(F)c(F)c2F)c2c(F)c(F)c(F)c(F)c2F)c(F)c1F.[Cs+]", "note": "[Compound 2, Cs[H2NB2(C6F5)6]]", "values": [{"measurement": "solubility in CH2Cl2, THF, chloroform, Et2O and toluene", "setting": "[3]; CH2Cl2, THF and solvents of low dielectric constant", "value": "dissolves well"}, {"measurement": "solubility in MeOH", "setting": "[3]; MeOH", "value": "only limited soluble"}, {"measurement": "solubility in alkanes", "setting": "[3]; alkanes", "value": "virtually insoluble"}, {"measurement": "solubility in water", "setting": "[3]", "value": "virtually insoluble"}, {"measurement": "solubility in water", "setting": "[3]; listed as Cs[H2NB2(C6F5)6]", "value": "insoluble"}]}, {"compound": "Fc1c(F)c(F)c([B-](c2c(F)c(F)c(F)c(F)c2F)(c2c(F)c(F)c(F)c(F)c2F)c2c(F)c(F)c(F)c(F)c2F)c(F)c1F.[Tl+]", "note": "[Compound 9, Tl[B(C6F5)4], reference compound]", "values": [{"measurement": "solubility in water", "setting": "[3]", "value": "water insoluble"}]}, {"compound": "[(H3O2)B2(C6F5)6]^−", "values": [{"measurement": "specificity for cesium", "setting": "[4]", "value": 100, "unit": "%"}]}, {"compound": "Fc1c(F)c(F)c([B-]([NH2+][B-](c2c(F)c(F)c(F)c(F)c2F)(c2c(F)c(F)c(F)c(F)c2F)c2c(F)c(F)c(F)c(F)c2F)(c2c(F)c(F)c(F)c(F)c2F)c2c(F)c(F)c(F)c(F)c2F)c(F)c1F", "note": "[[H2NB2(C6F5)6]^−]", "values": [{"measurement": "specificity for cesium", "setting": "[4]", "value": 100, "unit": "%"}]}, {"compound": "Cs[(C6F5)3B(OH2)—(HO)B(C6F5)3] [Compound 5]", "values": [{"measurement": "solubility in water", "setting": "[3]", "value": "water insoluble"}, {"measurement": "solubility in water", "setting": "[3]; listed as Cs[H(OH)2B2(C6F5)6]", "value": "insoluble"}]}, {"compound": "Fc1c(F)c(F)c([B-](c2c(F)c(F)c(F)c(F)c2F)(c2c(F)c(F)c(F)c(F)c2F)c2c(F)c(F)c(F)c(F)c2F)c(F)c1F.[Cs+]", "note": "[Compound 7, Cs[B(C6F5)4]]", "values": [{"measurement": "solubility in water", "setting": "[3]", "value": "insoluble"}]}, {"compound": "Fc1c(F)c(F)c([B-](c2c(F)c(F)c(F)c(F)c2F)(c2c(F)c(F)c(F)c(F)c2F)c2c(F)c(F)c(F)c(F)c2F)c(F)c1F.[Rb+]", "note": "[Compound 8, Rb[B(C6F5)4]]", "values": [{"measurement": "solubility in water", "setting": "[3]", "value": "water insoluble"}]}, {"compound": "CCOCC.CCOCC.CCOCC.Fc1c(F)c(F)c([B-]([NH2+][B-](c2c(F)c(F)c(F)c(F)c2F)(c2c(F)c(F)c(F)c(F)c2F)c2c(F)c(F)c(F)c(F)c2F)(c2c(F)c(F)c(F)c(F)c2F)c2c(F)c(F)c(F)c(F)c2F)c(F)c1F.[Na+]", "note": "[[Na(OEt2)3][H2NB2(C6F5)6]]", "values": [{"measurement": "yield of 2 precipitated from water", "setting": "[5]; neat water 570 mL, reagent c≈0.9·10^−4 M, overnight, filtration", "value": 66, "unit": "%"}, {"measurement": "total isolated yield of 2", "setting": "[5]; neat water, precipitate plus one CH2Cl2 extraction of the mother liquor", "value": 98, "unit": "%"}, {"measurement": "yield of 2 isolated from water containing other metal salts", "setting": "[6]", "value": 76, "unit": "%"}]}]}
